Data: US9585933B2, “Therapeutic use of peptide inhibitors of NADPH oxidase; aerosolization as a delivery mechanism” (University of Pittsburgh—Of the Commonwealth System of …, priority 2011, dated 2017)
Where no end group is shown, it is not given here.

Test system: hypoxia-induced pulmonary hypertension in mice
Assay: Aerosolized peptide in hypoxia-induced pulmonary hypertension, right ventricular hypertrophy
Format: in vivo, mice (C57BL/6)
Protocol: Nebulization was performed using a peptide solution of 5.6 mg of the Nox2ds-tat polypeptide—RKKRRQRRRCSTRIRRQL (SEQ ID NO: 7)—was dissolved in 5 mL of PBS. The polypeptide-containing solution was placed in a nebulization chamber which consisted of a Plexiglas living environment measuring 24×10×9 in. A diffuser was placed in front of the inlet to allow equal distribution of nebulized droplets, and a controlled fan pulled air through the environment
The polypeptide was delivered to mice (C57BL/6, n=2) at an air flow rate of 8 L/minute for 20 minutes per treatment. Treatment was repeated every other day for 21 days.
FIG. 7 (top panel) is a graph showing right ventricular pressure and FIG. 7 (bottom panel) is a graph showing the Fulton's Index for the mice tested. To obtain a Fulton's Index, the heart and lungs are excised and weighed, and the ratio of RV free wall weight over septum plus left ventricular (LV) free wall weight is estimated and used as the index of RV hypertrophy.
Invasive hemodynamics to examine RV function were carried out using pressure-volume loop analysis (Scisence P/V loop hardware, London, Ontario with IOX2 analysis software, EMKA, Falls Church, Va.). Contractility index (dP/dtmax/IP), Powermax/EDV, and ejection fraction as indicators of RV systolic function as well as the time constant of relaxation (Tau) and dP/dtmin as measures of RV relaxation were determined.

In the case of CSTRVRRQL-NH2 [Nox2ds, CSTRVRRQL], the “right ventricular hypertrophy and RV pressure (in words)” value (hypoxia-induced pulmonary hypertension in mice) is reported as “attenuated” and the “right ventricule/left ventricule+septum ratio (Fulton's Index)” value (hypoxic mice, n=2, normoxic 0.21±0.01, hypoxic 0.27±0.02, preliminary data) is reported as 0.22±0.004.
